molecular target: T1, human HYPDH (Homo sapiens (Human), UniProt Q9UF12); assay: HYPDH inhibition activity assay (inhibitor pre-incubated 5 min, reaction started with Hyp); type: biochemical; settings: inhibitor pre-incubated with HYPDH for 5 min; reaction started by addition of 600 mM Hyp
From the text: (§1) Despite the identification of the Hyp pathway in rat and bovine kidneys and livers over 50 years ago, very little is known about human HYPDH (also known as PRODH2 and hydroxyproline oxidase, HPOX, in the literature) (Miyata et al., Proc Natl Acad Sci USA 111, 14406-14411, 2014; Efron et al., New Engl J Med 272, 1299-1309; Pelkonen et al., New Engl J Med 283, 451-456, 1970). In an effort to biochemically and structurally characterize human HYPDH, we have evaluated numerous expression constructs (>15) in Escherichia coli with N- and C-terminal truncations. […] Only the constructs containing the residues 147-515 and 156-515 were >96% loaded with FAD+ and active.
Each inhibitor was pre-incubated with HYPDH for 5 min, and the reaction started by the addition of 600 mM Hyp. A range of concentrations was tested in order to determine the IC50 value. Table 1 lists the potency of the compounds.

T1 sequence (Q9UF12 71-439 limits assumed): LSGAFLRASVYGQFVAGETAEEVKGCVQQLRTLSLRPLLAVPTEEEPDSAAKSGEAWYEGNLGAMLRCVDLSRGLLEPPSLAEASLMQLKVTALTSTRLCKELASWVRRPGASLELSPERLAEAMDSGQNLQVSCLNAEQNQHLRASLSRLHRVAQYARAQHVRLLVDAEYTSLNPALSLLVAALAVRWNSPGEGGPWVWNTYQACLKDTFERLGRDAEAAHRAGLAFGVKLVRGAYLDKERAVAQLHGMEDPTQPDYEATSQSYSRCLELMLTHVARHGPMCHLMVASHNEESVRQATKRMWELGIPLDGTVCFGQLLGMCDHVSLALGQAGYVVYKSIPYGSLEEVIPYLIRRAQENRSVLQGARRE

Compound	IC50
O=C(O)C1CCC(O)C1 (stereo not drawn) [Compound 5]	2100 ± 100 µM
O=C(O)C1CC[C@@H](O)C1 (stereo partly drawn) [Compound 6]	> 10000 µM
O=C(O)C1CC[C@H](O)C1 (stereo partly drawn) [Compound 7]	600 ± 10 µM
N[C@H]1CCC(C(=O)O)C1 (stereo partly drawn) [Compound 9]	630 ± 10 µM
O=C1CC[C@@H](C(=O)O)C1 [Compound 11]	370 ± 10 µM

Other lines, results leading:

IC50	Compound
1500 ± 100 µM	O=C(O)C1CCCO1 (stereo not drawn) [Compound 2]
480 ± 10 µM	O=C(O)C[C@H]1CC[C@H](O)C1 [Compound 8]
380 ± 10 µM	O=C1CCC(C(=O)O)C1 (stereo not drawn) [Compound 10]

molecular target: T1, human HYPDH; assay: Anaerobic titration of the FAD+ spectrum of recombinant HYPDH; type: binding; settings: not given
From the text: as §1

Compound	Kd
O=C(O)C1CC(O)CN1 (stereo not drawn) [Hyp, Hydroxyproline]	125 µM

— patent US10562844B2, “HYPDH inhibitors and methods of use for the treatment of kidney stones” (Wake Forest University Health Sciences, priority 2015, dated 2020)
